Reference: patent publication US20120128777A1, “COMPOSITIONS CONTAINING LIPID MICRO- OR NANOPARTICLES FOR THE ENHANCEMENT OF THE DERMAL ACTION OF SOLID PARTICLES” (PHARMASOL GMBH, priority 2008, published 2012)

Test system: skin
Details: 50 volunteers, undiluted, patch 48 hours, read after 48 hours and after 72 hours

## CCCCCCCCCCCCOS(=O)(=O)[O-].[Na+] [SDS, Sodium dodecyl sulphate]
  positive reactions: 11 subjects
